Results as given in ChEMBL document CHEMBL5465560, “Selectivity Literature for EUbOPEN Chemogenomic Library” (2024).

Key:
[1] = target: Tyrosine-protein kinase JAK1 (Homo sapiens, UniProt P23458); assay: Selectivity interaction (KinomeScan (DiscoverX)) EUB0000229b JAK1; conditions: at 10 µM
[2] = target: T1, MAP kinase-activated protein kinase 5 (Homo sapiens) (UniProt Q8IW41); assay: Selectivity interaction (KinomeScan (DiscoverX)) EUB0000045b MAPKAPK5
T1 sequence (whole entry): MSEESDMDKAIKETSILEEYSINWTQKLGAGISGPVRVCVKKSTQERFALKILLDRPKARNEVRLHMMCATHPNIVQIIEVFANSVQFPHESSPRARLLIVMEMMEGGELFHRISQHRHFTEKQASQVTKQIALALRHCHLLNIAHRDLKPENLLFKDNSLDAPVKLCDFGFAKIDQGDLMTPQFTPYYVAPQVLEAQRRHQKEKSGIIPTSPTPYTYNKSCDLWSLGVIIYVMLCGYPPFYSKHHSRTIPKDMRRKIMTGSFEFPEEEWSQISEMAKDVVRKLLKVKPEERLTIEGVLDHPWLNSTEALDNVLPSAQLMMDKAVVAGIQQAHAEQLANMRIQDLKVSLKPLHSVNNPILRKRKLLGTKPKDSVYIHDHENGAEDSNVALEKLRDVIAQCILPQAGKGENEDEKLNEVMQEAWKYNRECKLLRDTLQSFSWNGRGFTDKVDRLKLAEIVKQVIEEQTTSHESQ

[3] = target: T2, Discoidin domain-containing receptor 2 (Homo sapiens) (UniProt Q16832); assay: Selectivity interaction (KinomeScan (DiscoverX)) EUB0000045b DDR2
T2 sequence (whole entry): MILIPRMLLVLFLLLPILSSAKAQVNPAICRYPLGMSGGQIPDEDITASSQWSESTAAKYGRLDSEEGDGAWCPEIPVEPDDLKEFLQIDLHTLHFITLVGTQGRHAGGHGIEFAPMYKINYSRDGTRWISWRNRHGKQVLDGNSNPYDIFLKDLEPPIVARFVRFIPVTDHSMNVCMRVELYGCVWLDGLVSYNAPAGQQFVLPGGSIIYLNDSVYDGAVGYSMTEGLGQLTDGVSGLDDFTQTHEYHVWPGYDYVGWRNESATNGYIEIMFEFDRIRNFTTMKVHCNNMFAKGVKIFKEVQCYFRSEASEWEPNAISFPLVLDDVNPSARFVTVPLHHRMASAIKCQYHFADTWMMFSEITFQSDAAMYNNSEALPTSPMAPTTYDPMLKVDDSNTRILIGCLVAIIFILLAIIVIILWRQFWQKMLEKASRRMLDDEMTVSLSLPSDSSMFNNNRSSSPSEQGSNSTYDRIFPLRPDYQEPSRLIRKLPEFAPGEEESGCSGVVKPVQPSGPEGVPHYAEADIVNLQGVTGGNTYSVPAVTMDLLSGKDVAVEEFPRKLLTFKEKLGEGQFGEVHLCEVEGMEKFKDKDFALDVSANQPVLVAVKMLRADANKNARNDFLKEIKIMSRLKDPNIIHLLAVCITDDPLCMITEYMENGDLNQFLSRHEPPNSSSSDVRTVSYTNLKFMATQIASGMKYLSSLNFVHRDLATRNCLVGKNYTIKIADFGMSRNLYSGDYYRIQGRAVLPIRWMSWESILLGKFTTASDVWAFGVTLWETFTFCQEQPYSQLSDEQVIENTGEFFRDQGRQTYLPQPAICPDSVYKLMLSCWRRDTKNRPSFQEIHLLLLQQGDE

[4] = target: Casein kinase I isoform delta (Homo sapiens, UniProt P48730); assay: Selectivity interaction (KinomeScan (DiscoverX)) EUB0000655a CSNK1D; conditions: at 10 µM
Casein kinase I isoform delta, sequence (P48730 whole entry, looked up, canonical isoform): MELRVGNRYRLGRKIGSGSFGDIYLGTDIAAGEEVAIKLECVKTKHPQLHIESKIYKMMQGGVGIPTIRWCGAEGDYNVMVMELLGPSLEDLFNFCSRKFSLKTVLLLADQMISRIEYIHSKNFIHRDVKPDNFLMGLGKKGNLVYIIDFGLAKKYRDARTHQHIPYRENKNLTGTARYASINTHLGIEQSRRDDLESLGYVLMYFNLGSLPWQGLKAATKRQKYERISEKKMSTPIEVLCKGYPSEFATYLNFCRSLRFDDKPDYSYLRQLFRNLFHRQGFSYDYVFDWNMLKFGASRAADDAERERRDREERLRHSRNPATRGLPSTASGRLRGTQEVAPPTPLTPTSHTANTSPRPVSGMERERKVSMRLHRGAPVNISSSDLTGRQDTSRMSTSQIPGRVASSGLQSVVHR

[5] = target: T3, Ephrin type-B receptor 2 (Homo sapiens) (UniProt P29323); assay: Selectivity interaction (KinomeScan (DiscoverX)) EUB0000618a EPHB2; conditions: at 10 µM
T3 sequence (whole entry): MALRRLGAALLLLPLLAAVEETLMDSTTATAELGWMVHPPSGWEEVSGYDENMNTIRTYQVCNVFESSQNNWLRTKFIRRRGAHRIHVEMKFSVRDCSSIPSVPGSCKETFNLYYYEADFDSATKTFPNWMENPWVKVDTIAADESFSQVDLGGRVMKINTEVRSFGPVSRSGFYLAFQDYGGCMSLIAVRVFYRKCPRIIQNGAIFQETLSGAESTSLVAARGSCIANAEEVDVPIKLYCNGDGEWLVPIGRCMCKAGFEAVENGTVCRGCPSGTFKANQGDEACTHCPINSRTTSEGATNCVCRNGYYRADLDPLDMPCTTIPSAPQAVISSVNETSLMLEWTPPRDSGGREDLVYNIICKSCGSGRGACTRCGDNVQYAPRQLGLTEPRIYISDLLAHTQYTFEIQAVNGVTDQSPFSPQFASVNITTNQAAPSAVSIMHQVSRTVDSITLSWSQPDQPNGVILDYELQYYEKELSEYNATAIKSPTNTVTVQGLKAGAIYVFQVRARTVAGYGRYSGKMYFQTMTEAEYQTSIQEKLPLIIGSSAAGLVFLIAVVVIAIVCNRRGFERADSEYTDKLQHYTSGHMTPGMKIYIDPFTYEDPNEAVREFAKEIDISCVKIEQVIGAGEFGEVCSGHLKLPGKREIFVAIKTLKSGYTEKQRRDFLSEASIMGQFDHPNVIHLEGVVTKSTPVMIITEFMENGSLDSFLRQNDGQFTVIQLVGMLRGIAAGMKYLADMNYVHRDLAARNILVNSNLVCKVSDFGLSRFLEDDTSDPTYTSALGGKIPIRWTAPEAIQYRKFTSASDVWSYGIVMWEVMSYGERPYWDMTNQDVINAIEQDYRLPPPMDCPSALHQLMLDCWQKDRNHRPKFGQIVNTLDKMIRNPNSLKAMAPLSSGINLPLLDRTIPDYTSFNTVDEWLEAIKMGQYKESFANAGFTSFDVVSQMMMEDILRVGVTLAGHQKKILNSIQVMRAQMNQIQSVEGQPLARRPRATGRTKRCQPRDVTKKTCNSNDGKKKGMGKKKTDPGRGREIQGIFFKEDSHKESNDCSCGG

[6] = target: T4, Serine/threonine-protein kinase 17B (Homo sapiens) (UniProt O94768); assay: Selectivity interaction (Kinase panel (DSF assay)) EUB0001559a STK17B
T4 sequence (whole entry): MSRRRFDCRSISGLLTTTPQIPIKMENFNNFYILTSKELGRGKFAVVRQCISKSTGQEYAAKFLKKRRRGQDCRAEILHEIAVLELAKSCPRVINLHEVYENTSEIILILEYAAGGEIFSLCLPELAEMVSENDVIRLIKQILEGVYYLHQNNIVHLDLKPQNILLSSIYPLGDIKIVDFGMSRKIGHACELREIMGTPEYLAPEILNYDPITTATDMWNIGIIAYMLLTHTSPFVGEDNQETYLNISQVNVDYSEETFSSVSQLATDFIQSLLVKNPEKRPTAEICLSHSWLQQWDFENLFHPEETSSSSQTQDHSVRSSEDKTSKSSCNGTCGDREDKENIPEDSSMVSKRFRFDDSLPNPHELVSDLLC

Tyrosine-protein kinase JAK1, sequence (P23458 whole entry): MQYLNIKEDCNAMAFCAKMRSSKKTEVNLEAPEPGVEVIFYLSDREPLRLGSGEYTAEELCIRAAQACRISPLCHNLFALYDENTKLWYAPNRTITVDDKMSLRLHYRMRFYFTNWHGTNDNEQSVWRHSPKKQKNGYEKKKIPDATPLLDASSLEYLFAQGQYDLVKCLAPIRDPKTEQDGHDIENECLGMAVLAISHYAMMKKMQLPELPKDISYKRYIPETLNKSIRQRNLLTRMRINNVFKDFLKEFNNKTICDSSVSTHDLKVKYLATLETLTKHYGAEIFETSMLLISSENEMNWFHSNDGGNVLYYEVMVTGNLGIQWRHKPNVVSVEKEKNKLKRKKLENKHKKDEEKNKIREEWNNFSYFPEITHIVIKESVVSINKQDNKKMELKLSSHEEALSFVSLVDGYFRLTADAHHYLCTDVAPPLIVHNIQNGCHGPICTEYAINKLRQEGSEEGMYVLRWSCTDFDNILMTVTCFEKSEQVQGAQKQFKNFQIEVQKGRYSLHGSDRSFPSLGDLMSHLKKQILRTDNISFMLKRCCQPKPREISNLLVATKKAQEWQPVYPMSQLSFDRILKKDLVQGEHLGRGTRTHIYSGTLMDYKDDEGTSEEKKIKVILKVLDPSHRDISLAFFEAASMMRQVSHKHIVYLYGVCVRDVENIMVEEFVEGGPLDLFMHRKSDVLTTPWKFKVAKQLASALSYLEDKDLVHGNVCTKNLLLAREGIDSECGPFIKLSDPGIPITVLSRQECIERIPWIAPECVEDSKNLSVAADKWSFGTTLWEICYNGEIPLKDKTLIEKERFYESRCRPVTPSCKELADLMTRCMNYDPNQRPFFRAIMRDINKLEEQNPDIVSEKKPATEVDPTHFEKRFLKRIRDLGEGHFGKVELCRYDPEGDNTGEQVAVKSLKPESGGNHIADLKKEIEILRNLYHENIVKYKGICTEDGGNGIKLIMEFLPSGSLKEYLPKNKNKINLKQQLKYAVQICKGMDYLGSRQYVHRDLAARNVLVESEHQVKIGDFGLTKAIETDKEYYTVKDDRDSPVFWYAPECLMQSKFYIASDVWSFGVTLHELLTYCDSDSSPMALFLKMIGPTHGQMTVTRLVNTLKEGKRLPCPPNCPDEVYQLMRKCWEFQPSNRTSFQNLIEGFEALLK

In the case of `COc1cc(N(C)c2ccnc3ccc(C(F)(F)F)cc23)cc(OC)c1OC`, the % binding [1] is reported as 70%.

`C=CC(=O)Nc1cc(-n2c(=O)ccc3cnc4ccc(-c5ccc(NS(C)(=O)=O)cc5)cc4c32)ccc1C` showed a % of control ([2]; at 1 µM) of 100%, a % of control ([2]; at 10 µM) of 100% and a % of control ([3]; at 1 µM) of 100%. The % of control ([3]; at 10 µM) was 100%.

`CN(C)CCOc1ccc(-c2nc(-c3ccncc3)c(-c3ccc4c(c3)CC/C4=N\O)[nH]2)cc1` was tested, and the % of control [4] was 4%.

In the case of `O[C@H]1CC[C@H](Nc2ncc3nc(Nc4c(F)cc(F)cc4F)n([C@H]4CCOC4)c3n2)CC1`, the % of control [5] is reported as 72%.

With `CN(C(=O)c1cnn2cccnc12)c1cc2c(cc1N1CCOCC1)C(=O)N(C[C@@H](F)C(C)(C)O)C2` the dTM [6] was 1 K.
